From ChEMBL document CHEMBL1201862, “PubChem BioAssay data set” (2004)
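Compound exposure: 48 hours, 5 concentrations, 96-well plates. GI50 is the concentration that inhibits growth by half.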 Calls of active or inactive are those of the source. Cut-off read from the data, not from the text of the source: active = GI50 up to about 1.1 µM and inactive = higher.

Key:
Experiment in all cases: NCI-60 cell line screen, 48 h
BT-549 = tested on: BT-549
CAKI-1 = tested on: CAKI-1
UO-31 = tested on: UO-31
MDA-MB-435 = tested on: MDA-MB-435
OVCAR-5 = tested on: OVCAR-5
NCI-H226 = tested on: NCI-H226
RPMI-8226 = tested on: RPMI-8226
MDA-N = tested on: MDA-N
SNB-75 = tested on: SNB-75
COLO 205 = tested on: COLO 205
IGROV-1 = tested on: IGROV-1
HCT-15 = tested on: HCT-15
MOLT-4 = tested on: MOLT-4
HL-60 = tested on: HL-60
HOP-62 = tested on: HOP-62
MCF7 = tested on: MCF7
NCI/ADR-RES = tested on: NCI/ADR-RES
SR = tested on: SR
K562 = tested on: K562
EKVX = tested on: EKVX
SW-620 = tested on: SW-620
DU-145 = tested on: DU-145
SK-MEL-28 = tested on: SK-MEL-28
SF-539 = tested on: SF-539
NCI-H460 = tested on: NCI-H460
SN12C = tested on: SN12C
MDA-MB-231 = tested on: MDA-MB-231
SK-MEL-2 = tested on: SK-MEL-2
M14 = tested on: M14
PC-3 = tested on: PC-3
HOP-92 = tested on: HOP-92
OVCAR-3 = tested on: OVCAR-3
ACHN = tested on: ACHN
SF-295 = tested on: SF-295
A498 = tested on: A498
NCI-H522 = tested on: NCI-H522
TK-10 = tested on: TK-10
786-0 = tested on: 786-0
HCT-116 = tested on: HCT-116
Malme-3M = tested on: Malme-3M
OVCAR-4 = tested on: OVCAR-4
LOX IMVI = tested on: LOX IMVI
SK-OV-3 = tested on: SK-OV-3
T47D = tested on: T47D
HT-29 = tested on: HT-29
OVCAR-8 = tested on: OVCAR-8
A549 = tested on: A549
UACC-62 = tested on: UACC-62
UACC-257 = tested on: UACC-257
SNB-19 = tested on: SNB-19
U-251 = tested on: U-251
KM12 = tested on: KM12
SF-268 = tested on: SF-268
Hs-578T = tested on: Hs-578T
RXF 393 = tested on: RXF 393
SK-MEL-5 = tested on: SK-MEL-5
HCC 2998 = tested on: HCC 2998
CCRF-CEM = tested on: CCRF-CEM
NCI-H23 = tested on: NCI-H23

With `NCC(O)CNCC/C=C\C/C=C\C/C=C\C/C=C\C/C=C\C/C=C\CCCCC/C=C\CCNCC(O)CN` (stereo not drawn) the GI50 (BT-549) was 2.94 µM (inactive), the GI50 (CAKI-1) was 2.08 µM (inactive) and the GI50 (UO-31) was 1.9 µM (inactive). The GI50 (MDA-MB-435) was 1.65 µM (inactive), the GI50 (OVCAR-5) was 1.94 µM (inactive) and the GI50 (NCI-H226) was 2.64 µM (inactive). The GI50 (RPMI-8226) was 1.66 µM (inactive), the GI50 (MDA-N) was 1.67 µM (inactive) and the GI50 (SNB-75) was 1.73 µM (inactive). The GI50 (COLO 205) was 1.96 µM (inactive), the GI50 (IGROV-1) was 1.71 µM (inactive) and the GI50 (HCT-15) was 1.6 µM. For the same compound, the GI50 (MOLT-4) was 1.24 µM (inactive), the GI50 (HL-60) was 0.453 µM (active) and the GI50 (HOP-62) was 1.97 µM (inactive). The GI50 (MCF7) was 2.15 µM (inactive), the GI50 (NCI/ADR-RES) was 1.47 µM (inactive) and the GI50 (SR) was 0.435 µM (active). The GI50 (K562) was 2.29 µM (inactive), the GI50 (EKVX) was 0.731 µM (active) and the GI50 (SW-620) was 1.78 µM (inactive). For the same compound, the GI50 (DU-145) was 1.77 µM (inactive), the GI50 (SK-MEL-28) was 3.4 µM (inactive) and the GI50 (SF-539) was 1.9 µM (inactive). The GI50 (NCI-H460) was 1.82 µM (inactive), the GI50 (SN12C) was 1.64 µM (inactive) and the GI50 (MDA-MB-231) was 1.75 µM (inactive). The GI50 (SK-MEL-2) was 1.81 µM (inactive), the GI50 (M14) was 1.94 µM (inactive) and the GI50 (PC-3) was 1.92 µM (inactive). The GI50 (HOP-92) was 2.01 µM (inactive), the GI50 (OVCAR-3) was 1.98 µM (inactive) and the GI50 (ACHN) was 1.8 µM (inactive). For the same compound, the GI50 (SF-295) was 2.07 µM (inactive), the GI50 (A498) was 1.83 µM (inactive) and the GI50 (NCI-H522) was 1.53 µM (inactive). For the same compound, the GI50 (TK-10) was 1.57 µM (inactive), the GI50 (786-0) was 1.69 µM (inactive) and the GI50 (HCT-116) was 1.78 µM (inactive). The GI50 (Malme-3M) was 1.94 µM (inactive), the GI50 (OVCAR-4) was 1.93 µM (inactive) and the GI50 (LOX IMVI) was 1.79 µM (inactive). The GI50 (SK-OV-3) was 2.64 µM (inactive), the GI50 (T47D) was 2 µM (inactive) and the GI50 (HT-29) was 1.75 µM (inactive). The GI50 (OVCAR-8) was 1.78 µM (inactive), the GI50 (A549) was 1.85 µM (inactive) and the GI50 (UACC-62) was 1.79 µM (inactive). For the same compound, the GI50 (UACC-257) was 2.13 µM (inactive), the GI50 (SNB-19) was 1.9 µM (inactive) and the GI50 (U-251) was 1.72 µM (inactive). For the same compound, the GI50 (KM12) was 1.58 µM (inactive), the GI50 (SF-268) was 1.83 µM (inactive) and the GI50 (Hs-578T) was 1.36 µM (inactive).
`Cc1cccc(/N=N/c2c(C)nn(C(=O)CC(=O)Nc3ccc(Cl)cc3)c2C)c1` was tested, and the GI50 (BT-549) was > 100 µM (inactive), the GI50 (CAKI-1) was > 100 µM (inactive) and the GI50 (UO-31) was > 100 µM (inactive). For the same compound, the GI50 (MDA-MB-435) was > 100 µM (inactive), the GI50 (OVCAR-5) was 45.6 µM (inactive) and the GI50 (NCI-H226) was 20 µM (inactive). The GI50 (RPMI-8226) was > 100 µM (inactive), the GI50 (MDA-N) was 83.8 µM (inactive) and the GI50 (SNB-75) was 9.51 µM (inactive). The GI50 (COLO 205) was > 100 µM (inactive), the GI50 (HCT-15) was 47.8 µM and the GI50 (MOLT-4) was 36.6 µM (inactive). The GI50 (HL-60) was 36 µM (inactive), the GI50 (HOP-62) was 37.1 µM (inactive) and the GI50 (MCF7) was > 100 µM (inactive). The GI50 (NCI/ADR-RES) was > 100 µM (inactive), the GI50 (SR) was 20.8 µM (inactive) and the GI50 (EKVX) was 13.4 µM (inactive). The GI50 (SW-620) was > 100 µM (inactive), the GI50 (DU-145) was > 100 µM (inactive) and the GI50 (SK-MEL-28) was > 100 µM (inactive). For the same compound, the GI50 (RXF 393) was 48.1 µM (inactive), the GI50 (SF-539) was > 100 µM (inactive) and the GI50 (NCI-H460) was 85.3 µM (inactive). The GI50 (SK-MEL-5) was > 100 µM (inactive), the GI50 (SN12C) was > 100 µM (inactive) and the GI50 (MDA-MB-231) was 20.7 µM (inactive). The GI50 (SK-MEL-2) was 67.5 µM (inactive), the GI50 (M14) was 48.3 µM (inactive) and the GI50 (PC-3) was 69 µM (inactive). For the same compound, the GI50 (HOP-92) was 21 µM (inactive), the GI50 (OVCAR-3) was 82.4 µM (inactive) and the GI50 (ACHN) was 60.5 µM (inactive). For the same compound, the GI50 (SF-295) was > 100 µM (inactive), the GI50 (A498) was 43.8 µM (inactive) and the GI50 (NCI-H522) was 53.3 µM (inactive). For the same compound, the GI50 (TK-10) was > 100 µM (inactive), the GI50 (786-0) was 82 µM (inactive) and the GI50 (HCT-116) was 67.1 µM (inactive). For the same compound, the GI50 (OVCAR-4) was > 100 µM (inactive), the GI50 (LOX IMVI) was 95.5 µM (inactive) and the GI50 (SK-OV-3) was 65.6 µM (inactive). For the same compound, the GI50 (T47D) was 64.3 µM (inactive), the GI50 (HCC 2998) was > 100 µM (inactive) and the GI50 (HT-29) was > 100 µM (inactive). The GI50 (OVCAR-8) was > 100 µM (inactive), the GI50 (A549) was > 100 µM (inactive) and the GI50 (UACC-62) was > 100 µM (inactive). The GI50 (CCRF-CEM) was 32.4 µM (inactive), the GI50 (UACC-257) was > 100 µM (inactive) and the GI50 (SNB-19) was 80.5 µM (inactive). The GI50 (U-251) was 61.5 µM (inactive), the GI50 (NCI-H23) was > 100 µM (inactive) and the GI50 (KM12) was > 100 µM (inactive). For the same compound, the GI50 (SF-268) was 55.2 µM (inactive) and the GI50 (Hs-578T) was 23.8 µM (inactive).
In the case of `N/C(=N\N=C\c1nc2ccccc2o1)c1cnccn1`, the GI50 (BT-549) was > 100 µM (inactive), the GI50 (CAKI-1) was > 100 µM (inactive) and the GI50 (UO-31) was > 100 µM (inactive). The GI50 (MDA-MB-435) was > 100 µM (inactive), the GI50 (OVCAR-5) was > 100 µM (inactive) and the GI50 (NCI-H226) was > 100 µM (inactive). The GI50 (RPMI-8226) was > 100 µM (inactive), the GI50 (MDA-N) was > 100 µM (inactive) and the GI50 (SNB-75) was 16.4 µM (inactive). The GI50 (COLO 205) was > 100 µM (inactive), the GI50 (IGROV-1) was > 100 µM (inactive) and the GI50 (HCT-15) was greater than 100 µM. The GI50 (MOLT-4) was > 100 µM (inactive), the GI50 (HL-60) was 49.9 µM (inactive) and the GI50 (HOP-62) was 43.2 µM (inactive). For the same compound, the GI50 (MCF7) was > 100 µM (inactive), the GI50 (NCI/ADR-RES) was > 100 µM (inactive) and the GI50 (SR) was > 100 µM (inactive). For the same compound, the GI50 (K562) was > 100 µM (inactive), the GI50 (EKVX) was > 100 µM (inactive) and the GI50 (SW-620) was > 100 µM (inactive). The GI50 (DU-145) was > 100 µM (inactive), the GI50 (SK-MEL-28) was > 100 µM (inactive) and the GI50 (RXF 393) was 49.5 µM (inactive). For the same compound, the GI50 (SF-539) was > 100 µM (inactive), the GI50 (NCI-H460) was 72.9 µM (inactive) and the GI50 (SK-MEL-5) was > 100 µM (inactive). For the same compound, the GI50 (SN12C) was > 100 µM (inactive), the GI50 (MDA-MB-231) was 51.2 µM (inactive) and the GI50 (SK-MEL-2) was 80.7 µM (inactive). For the same compound, the GI50 (M14) was > 100 µM (inactive), the GI50 (PC-3) was > 100 µM (inactive) and the GI50 (HOP-92) was > 100 µM (inactive). For the same compound, the GI50 (OVCAR-3) was > 100 µM (inactive), the GI50 (ACHN) was 70.8 µM (inactive) and the GI50 (SF-295) was 87.9 µM (inactive). The GI50 (A498) was > 100 µM (inactive), the GI50 (NCI-H522) was > 100 µM (inactive) and the GI50 (TK-10) was 30.7 µM (inactive). For the same compound, the GI50 (786-0) was 66.7 µM (inactive), the GI50 (HCT-116) was > 100 µM (inactive) and the GI50 (Malme-3M) was 1.71 µM (inactive). The GI50 (OVCAR-4) was > 100 µM (inactive), the GI50 (LOX IMVI) was > 100 µM (inactive) and the GI50 (SK-OV-3) was 42.7 µM (inactive). For the same compound, the GI50 (T47D) was 51.4 µM (inactive), the GI50 (HT-29) was > 100 µM (inactive) and the GI50 (OVCAR-8) was > 100 µM (inactive). For the same compound, the GI50 (A549) was > 100 µM (inactive), the GI50 (UACC-62) was > 100 µM (inactive) and the GI50 (CCRF-CEM) was > 100 µM (inactive). For the same compound, the GI50 (UACC-257) was > 100 µM (inactive), the GI50 (SNB-19) was > 100 µM (inactive) and the GI50 (U-251) was 35.6 µM (inactive). The GI50 (NCI-H23) was 83.8 µM (inactive), the GI50 (KM12) was > 100 µM (inactive) and the GI50 (SF-268) was > 100 µM (inactive). The GI50 (Hs-578T) was > 100 µM (inactive).
